Test results published in patent US8445478B2 (Sanofi, priority 2007, dated 2013).
Values belong to the compound of their own block, whether it stands above or below them.

Legend:
human CB1 receptor = human CB1 receptor (Homo sapiens, UniProt P21554); assay: cell-based
Experimental: The compounds according to the invention were the subject of pharmacological tests for determining the activity with respect to human cannabinoid CB1-type receptors. The efficacy of the compounds of formula (I) was determined in a functional test which measures cannabinoid CB1 receptor activity (intracellular cyclic AMP test). The test for detecting intracellular cyclic AMP in U373MG cells naturally expressing the human CB1 receptor was carried out as described in the reference: Bouaboula et al., 1995, J. Biol. Chem. 270:13973-13980. The HTRF cAMP Dynamic Kit from CisBio was used to quantify the intracellular cyclic AMP.

[1] = target: T1, cannabinoid CB1-type receptor (Mus musculus, UniProt P47746); assay: inhibition of gastrointestinal transit induced by racemic CP55,940 in mice; format: in vivo; conditions: 1 mg/kg per os; 3 hours after administration of the product; male CD1 mice; CP55,940 0.15 mg/kg ip
T1 construct: male CD1 mice received the test product per os; from tissue; host or cells: whole animal, male CD1 mice
T1 sequence (P47746 whole entry): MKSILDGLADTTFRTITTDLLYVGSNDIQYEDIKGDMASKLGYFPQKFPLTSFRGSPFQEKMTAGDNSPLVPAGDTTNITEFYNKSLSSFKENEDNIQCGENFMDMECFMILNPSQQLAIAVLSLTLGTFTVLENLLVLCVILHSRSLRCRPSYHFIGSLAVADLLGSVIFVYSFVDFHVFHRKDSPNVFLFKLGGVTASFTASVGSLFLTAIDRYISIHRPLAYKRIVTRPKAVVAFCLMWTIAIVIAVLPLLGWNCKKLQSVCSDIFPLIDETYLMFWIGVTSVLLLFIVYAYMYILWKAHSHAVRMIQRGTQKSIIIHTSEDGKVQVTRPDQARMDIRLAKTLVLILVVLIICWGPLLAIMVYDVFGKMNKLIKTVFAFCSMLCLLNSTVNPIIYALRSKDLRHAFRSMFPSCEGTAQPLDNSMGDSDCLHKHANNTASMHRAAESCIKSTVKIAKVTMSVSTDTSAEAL
Experimental: After a further 30 minutes, the animals received a charcoal bolus po. Thirty minutes later, the animals are sacrificed by euthanasia (CO2/O2) and the intestine is dissected. The progression of the charcoal bolus in the intestine is expressed as percentage of the total length of the intestine.

cannabinoid CB receptor = cannabinoid CB receptor (Mus musculus, UniProt P47746); assay: hypothermia induced by cannabinoid CB receptor agonist CP55,940 in mice; conditions: 3 mg/kg po; male CD1 mice; CP55,940 1.25 mg/kg i.p.; rectal temperature at 90 minutes
Sequence of cannabinoid CB receptor (P47746 whole entry): as above
Experimental: At time 0 min, the rectal temperature of male CD1 mice is measured before injection of the test product. At 30 minutes, a further measurement of the rectal temperature of the mice is taken and the racemic CP55,940 agonist ORS, 3RS, 4RS-3-[hydroxy-2-(1,1-dimethylheptyl)phenyl]-4-(3-hydroxypropyl)cyclohexan-1-ol) (1.25 mg/kg i.p. in 10% cremophor) is administered. At 90 minutes, the rectal temperature is again taken. The results are expressed as % relative to the control batch injected with the CP55,940 (minimum temperature) and to the carrier batch without CP55,940 treatment (maximum temperature).

Sequence of human CB1 receptor (P21554 whole entry): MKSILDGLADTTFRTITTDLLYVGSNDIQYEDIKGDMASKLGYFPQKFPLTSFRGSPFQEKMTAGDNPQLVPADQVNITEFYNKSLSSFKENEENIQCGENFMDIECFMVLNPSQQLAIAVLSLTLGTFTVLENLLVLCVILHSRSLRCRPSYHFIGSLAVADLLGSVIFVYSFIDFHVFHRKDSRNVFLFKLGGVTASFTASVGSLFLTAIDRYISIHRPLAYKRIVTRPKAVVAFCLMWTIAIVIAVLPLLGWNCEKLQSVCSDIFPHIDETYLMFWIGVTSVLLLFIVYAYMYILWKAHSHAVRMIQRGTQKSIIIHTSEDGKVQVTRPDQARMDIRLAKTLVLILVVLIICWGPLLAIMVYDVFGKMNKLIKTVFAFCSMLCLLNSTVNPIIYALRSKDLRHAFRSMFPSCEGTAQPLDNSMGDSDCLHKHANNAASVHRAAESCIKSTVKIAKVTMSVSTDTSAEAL

Compound: CC[C@H](NC(=O)c1ccc(F)c(N(C2CN(C(c3ccc(Cl)cc3)c3ccc(Cl)cc3)C2)S(C)(=O)=O)c1)C(N)=O [compound 36]
IC50 (human CB1 receptor): 952 nM

Compound: COc1cc(NS(=O)(=O)CC2CN(C(c3ccc(Cl)cc3)c3ccc(Cl)cc3)C2)cc(C(=O)N[C@@H](C)C(N)=O)c1 (hydrate or solvate) [compound 22, 3-({1-[bis(4-chlorophenyl)methyl]azetidin-3-yl}methanesulphonylamino)-N—((S)-1-carbamoylethyl)-5-methoxybenzamide]
melting point: 183 to 185 °C

Compound: CC(C)[C@H](NC(=O)c1cc(N(C2CN(C(c3ccc(Cl)cc3)c3ccc(Cl)cc3)C2)S(C)(=O)=O)cc(C(F)(F)F)c1)C(N)=O [compound 56]
IC50 (human CB1 receptor): 41 nM

Compound: CC[C@H](NC(=O)c1cc(NS(=O)(=O)CC2CN(C(c3ccc(Cl)cc3)c3ccc(Cl)cc3)C2)cc(C(F)(F)F)c1)C(N)=O [compound 55, 3-({1-[bis(4-chlorophenyl)methyl]azetidin-3-yl}methanesulphonylamino)-N—((S)-1-carbamoylpropyl)-5-trifluoromethylbenzamide]
percentages of inhibition (gastrointestinal transit model) [1]: 74%
percentages of inhibition of the decrease in temperature induced by the agonist (cannabinoid CB receptor): 28%

Compound: CCOC(=O)[C@H](C)NC(=O)c1cc(F)cc(N(C2CN(C(c3ccc(Cl)cc3)c3ccc(Cl)cc3)C2)S(C)(=O)=O)c1 [compound 79]
IC50 (human CB1 receptor): 70 nM

Compound: C[C@H](NC(=O)c1cccc(N(C2CN(C(c3ccc(Cl)cc3)c3ccc(Cl)cc3)C2)S(C)(=O)=O)c1)C(N)=O
IC50 (human CB1 receptor): 43 nM
percentages of inhibition (gastrointestinal transit model) [1]: 39.2%
percentages of inhibition of the decrease in temperature induced by the agonist (cannabinoid CB receptor): 5%

Compound: C[C@@H](NC(=O)c1cc(F)cc(N(C2CN(C(c3ccc(Cl)cc3)c3ccc(Cl)cc3)C2)S(C)(=O)=O)c1)C(N)=O
IC50 (human CB1 receptor): 284 nM

Compound: C[C@H](NC(=O)c1cc(N(C2CN(C(c3ccc(Cl)cc3)c3ccc(Cl)cc3)C2)S(C)(=O)=O)cc(C(F)(F)F)c1)C(=O)O [compound 68]
IC50 (human CB1 receptor): 24 nM
percentages of inhibition (gastrointestinal transit model) [1]: 7%

Compound: C[C@H](NC(=O)c1cc(F)cc(N(C2CN(C(c3ccc(Br)cc3)c3ccc(Br)cc3)C2)S(C)(=O)=O)c1)C(N)=O [compound 70, 3-({1-[bis(4-bromophenyl)methyl]azetidin-3-yl}methanesulphonylamino)-N—((S)-1-carbamoylethyl)-5-fluorobenzamide]
IC50 (human CB1 receptor): 31 nM

Compound: CNC(=O)[C@H](C)NC(=O)c1cc(NS(=O)(=O)CC2CN(C(c3ccc(Cl)cc3)c3ccc(Cl)cc3)C2)cc(C(F)(F)F)c1 [compound 57, 3-({1-[bis(4-chlorophenyl)methyl]azetidin-3-yl}methanesulphonylamino)-N—((S)-1-methylcarbamoylethyl)-5-trifluoromethylbenzamide]
percentages of inhibition (gastrointestinal transit model) [1]: 78%
percentages of inhibition of the decrease in temperature induced by the agonist (cannabinoid CB receptor): 21%

Compound: CNC(=O)[C@H](C)NC(=O)c1cc(F)cc(NS(=O)(=O)CC2CN(C(c3ccc(Cl)cc3)c3ccc(Cl)cc3)C2)c1 [compound 26, 3-({1-[bis(4-chlorophenyl)methyl]azetidin-3-yl}methanesulphonylamino)-5-fluoro-N—((S)-1-methylcarbamoylethyl)benzamide]
melting point: 150 °C

Compound: C[C@H](NC(=O)c1cc(F)cc(N(C2CN(C(c3ccc(Cl)cc3)c3ccc(Cl)cc3)C2)S(C)(=O)=O)c1)C(N)=O
IC50 (human CB1 receptor): 9 nM
percentages of inhibition (gastrointestinal transit model) [1]: 49%

Second part, the compound after the results:

melting point: 229 °C
Compound: C[C@H](NC(=O)c1cccc(NS(=O)(=O)CC2CN(C(c3ccc(Cl)cc3)c3ccc(Cl)cc3)C2)c1)C(N)=O [Compound No. 1, 3-({1-[bis(4-chlorophenyl)methyl]azetidin-3-yl}methanesulphonylamino)-N—((S)-1-carbamoylethyl)benzamide]

melting point: 196 to 198 °C
Compound: NC(=O)CNC(=O)c1cccc(NS(=O)(=O)CC2CN(C(c3ccc(Cl)cc3)c3ccc(Cl)cc3)C2)c1 [compound 16, 3-({1-[bis(4-chlorophenyl)methyl]azetidin-3-yl}methanesulphonylamino)-N-(carbamoylmethyl)benzamide]

melting point: 216 °C
Compound: CNC(=O)CNC(=O)c1cccc(NS(=O)(=O)CC2CN(C(c3ccc(Cl)cc3)c3ccc(Cl)cc3)C2)c1 [compound 15, 3-({1-[bis(4-chlorophenyl)methyl]azetidin-3-yl}methanesulphonylamino)-N-(methylcarbamoylmethyl)benzamide]

melting point: 176 °C
Compound: O=C(NCC(=O)N1CCOCC1)c1cccc(NS(=O)(=O)CC2CN(C(c3ccc(Cl)cc3)c3ccc(Cl)cc3)C2)c1 [Compound No. 8, 3-({1-[bis(4-chlorophenyl)methyl]azetidin-3-yl}methanesulphonylamino)-N-(2-morpholin-4-yl-2-oxoethyl)benzamide]

melting point: 212 to 214 °C
Compound: NC(=O)[C@H](CO)NC(=O)c1cc(F)cc(NS(=O)(=O)CC2CN(C(c3ccc(Cl)cc3)c3ccc(Cl)cc3)C2)c1 [compound 13, 3-({1-[bis(4-chlorophenyl)methyl]azetidin-3-yl}methanesulphonylamino)-N—((S)-1-carbamoyl-2-hydroxyethyl)-5-fluorobenzamide]

melting point: 212 to 214 °C
Compound: CC[C@H](NC(=O)c1cc(F)cc(NS(=O)(=O)CC2CN(C(c3ccc(Cl)cc3)c3ccc(Cl)cc3)C2)c1)C(N)=O [compound 14, 3-({1-[bis(4-chlorophenyl)methyl]azetidin-3-yl}methanesulphonylamino)-N—((S)-1-carbamoylpropyl)-5-fluorobenzamide]

melting point: 235 °C
Compound: C[C@@H](NC(=O)c1cccc(NS(=O)(=O)CC2CN(C(c3ccc(Cl)cc3)c3ccc(Cl)cc3)C2)c1)C(N)=O [Compound No. 5, 3-({1-[Bis(4-chlorophenyl)methyl]azetidin-3-yl}methanesulphonylamino)-N—((R)-1-carbamoylethyl)benzamide]

melting point: 219 to 221 °C
Compound: C[C@@H](NC(=O)c1cc(F)cc(NS(=O)(=O)CC2CN(C(c3ccc(Cl)cc3)c3ccc(Cl)cc3)C2)c1)C(N)=O [Compound No. 4, 3-({1-[bis(4-chlorophenyl)methyl]azetidin-3-yl}methanesulphonylamino)-N—((R)-1-carbamoylethyl)-5-fluorobenzamide]

percentages of inhibition of the decrease in temperature induced by the agonist (cannabinoid CB receptor): 17%
Compound: Cc1cc(NS(=O)(=O)CC2CN(C(c3ccc(Cl)cc3)c3ccc(Cl)cc3)C2)cc(C(=O)N[C@@H](C)C(N)=O)c1 [compound 38, 3-({1-[bis(4-chlorophenyl)methyl]azetidin-3-yl}methanesulphonylamino)-N—((S)-1-carbamoylethyl)-5-methylbenzamide]

melting point: 190 to 192 °C
Compound: NC(=O)CCNC(=O)c1cccc(NS(=O)(=O)CC2CN(C(c3ccc(Cl)cc3)c3ccc(Cl)cc3)C2)c1 [Compound No. 7, 3-({1-[bis(4-chlorophenyl)methyl]azetidin-3-yl}methanesulphonylamino)-N-(2-carbamoylethyl)benzamide]

melting point: 186 °C
Compound: NC(=O)CCCNC(=O)c1cc(F)cc(NS(=O)(=O)CC2CN(C(c3ccc(Cl)cc3)c3ccc(Cl)cc3)C2)c1 [compound 28, 3-({1-[bis(4-chlorophenyl)methyl]azetidin-3-yl}methanesulphonylamino)-N-(3-carbamoylpropyl)-5-fluorobenzamide]

melting point: 220 to 222 °C
Compound: CC[C@H](NC(=O)c1cccc(NS(=O)(=O)CC2CN(C(c3ccc(Cl)cc3)c3ccc(Cl)cc3)C2)c1)C(N)=O [compound 10, 3-({1-[bis(4-chlorophenyl)methyl]azetidin-3-yl}methanesulphonylamino)-N—((S)-1-carbamoylpropyl)benzamide]

melting point: 154 to 156 °C
Compound: NC(=O)CNC(=O)c1cc(F)cc(NS(=O)(=O)CC2CN(C(c3ccc(Cl)cc3)c3ccc(Cl)cc3)C2)c1 [Compound No. 2, 3-({1-[bis(4-chlorophenyl)methyl]azetidin-3-yl}methanesulphonylamino)-N-carbamoylmethyl-5-fluorobenzamide]

melting point: 171 to 173 °C
Compound: CNC(=O)[C@H](C)NC(=O)c1cccc(NS(=O)(=O)CC2CN(C(c3ccc(Cl)cc3)c3ccc(Cl)cc3)C2)c1 [Compound No. 9, 3-({1-[bis(4-chlorophenyl)methyl]azetidin-3-yl}methanesulphonylamino)-N—((S)-1-methylcarbamoylethyl)benzamide]

melting point: 228 to 230 °C
Compound: C[C@H](NC(=O)c1cc(F)cc(NS(=O)(=O)CC2CN(C(c3ccc(Cl)cc3)c3ccc(Cl)cc3)C2)c1)C(N)=O [Compound No. 3, 3-({1-[Bis(4-chlorophenyl)methyl]azetidin-3-yl}methanesulphonylamino)-N—((S)-1-carbamoylethyl)-5-fluorobenzamide]
